Assay results from US12268674B2, “Mi-2β inhibitor as an immunotherapy agent” (BioVentures, LLC, priority 2021, dated 2025).
Read-outs that look alike come from different tables or passages of the source.

Legend:
[1] = Pharmacokinetics of Z36-MP5 in rats; assay type: in vivo; settings: Sprague-Dawley rats; intraperitoneal 1.0 mg/kg
Protocol: Compound Z36-MP5 was evaluated in a pharmacokinetic study in male Sprague-Dawley (SD) rats following intraperitoneal injection of Z36-MP5 at 1.0 mg/kg as a solution in 5% DMSO, 30% PEG400, and 65% corn oil. Blood was collected at 0.25 h, 0.5 h, 1 h, 2 h, 4 h, 8 h, and 24 h following intraperitoneal injection. The blood samples were placed in wet ice, and serum was collected after centrifugation. Serum samples were frozen and stored at −80° C. The serum samples were analyzed utilizing HPLC-coupled tandem mass spectrometry (LC-MS/MS). Values are calculated from arithmetic mean plasma concentrations (n=3 rats per condition).

AARS = target: T1, AARS (Homo sapiens, UniProt P49588); experiment: ATPase profile (ATP acyl phosphate probe); assay type: binding; settings: SEQ ID NO: 1, ATP BS
T1 construct: to get the native cell lysate; host or cells: A375 cell lysate

ABCC1 = target: T2, ABCC1 (Homo sapiens, UniProt P33527); experiment: ATPase profile (ATP acyl phosphate probe); assay type: binding
T2 construct: to get the native cell lysate; host or cells: A375 cell lysate

ABCD3 = target: T3, ABCD3 (Homo sapiens, UniProt P28288); experiment: ATPase profile (ATP acyl phosphate probe); assay type: binding; settings: ABCD3, SEQ ID NO: 13, ATP BS
T3 construct: to get the native cell lysate; host or cells: A375 cell lysate

AK2 = target: T4, AK2 (Homo sapiens, UniProt P54819); experiment: ATPase profile (ATP acyl phosphate probe); assay type: binding; settings: AK2, SEQ ID NO: 33, ATP BS
T4 construct: to get the native cell lysate; host or cells: A375 cell lysate

ALDH18A1 = target: T5, ALDH18A1 (Homo sapiens, UniProt P54886); experiment: ATPase profile (ATP acyl phosphate probe); assay type: binding; settings: ALDH18A1, SEQ ID NO: 39, ATP BS
T5 construct: to get the native cell lysate; host or cells: A375 cell lysate

BAT1 = target: T6, BAT1 (Homo sapiens, UniProt Q13838); experiment: ATPase profile (ATP acyl phosphate probe); assay type: binding; settings: BAT1, SEQ ID NO: 49, ATP BS
T6 construct: to get the native cell lysate; host or cells: A375 cell lysate

CCT8 = target: T7, CCT8 (Homo sapiens, UniProt P50990); experiment: ATPase profile (ATP acyl phosphate probe); assay type: binding; settings: CCT8, SEQ ID NO: 56, ATP BS
T7 construct: to get the native cell lysate; host or cells: A375 cell lysate

CPS1 = target: T8, CPS1 (Homo sapiens, UniProt P31327); experiment: ATPase profile (ATP acyl phosphate probe); assay type: binding; settings: CPS1, SEQ ID NO: 64, labeling site Other
T8 construct: endogenous in cells; host or cells: A375 cell lysate

DDX3X = target: T9, DDX3X (Homo sapiens, UniProt O00571); experiment: ATPase profile (ATP acyl phosphate probe); assay type: binding; settings: SEQ ID NO: 70, ATP BS
T9 construct: endogenous in cells; host or cells: A375 cell lysate

GARS = target: T10, GARS (Homo sapiens, UniProt P41250); experiment: ATPase profile (ATP acyl phosphate probe); assay type: binding; settings: SEQ ID NO: 79, ATP BS
T10 construct: endogenous in cells; host or cells: A375 cell lysate

GSS = target: T11, GSS (Homo sapiens, UniProt P48637); experiment: ATPase profile (ATP acyl phosphate probe); assay type: binding
T11 construct: endogenous in cells; host or cells: A375 cell lysate

MCCC1 = target: T12, MCCC1 (Homo sapiens, UniProt Q96RQ3); experiment: ATPase profile (ATP acyl phosphate probe); assay type: binding
T12 construct: to get the native cell lysate; endogenous in cells; host or cells: A375

MCM6 = target: T13, MCM6 (Homo sapiens, UniProt P33991+Q14566); experiment: ATPase profile (ATP acyl phosphate probe); assay type: binding; settings: read-out: Inhibition (%) by 1 μM Z36-MP5
T13 construct: to get the native cell lysate; endogenous in cells; host or cells: A375

NMNAT3 = target: T14, NMNAT3 (Homo sapiens, UniProt Q96T66); experiment: ATPase profile (ATP acyl phosphate probe); assay type: binding; settings: NMNAT3, SEQ ID NO: 135, ATP BS
T14 construct: to get the native cell lysate; endogenous in cells; host or cells: A375

NT5E = target: T15, NT5E (Homo sapiens, UniProt P21589); experiment: ATPase profile (ATP acyl phosphate probe); assay type: binding; settings: SEQ ID NO: 140, ATP BS
T15 construct: to get the native cell lysate; endogenous in cells; host or cells: A375

NUDT1 = target: T16, NUDT1 (Homo sapiens, UniProt P36639); experiment: ATPase profile (ATP acyl phosphate probe); assay type: binding
T16 construct: to get the native cell lysate; endogenous in cells; host or cells: A375

PRKAG1 = PRKAG1 (Homo sapiens, UniProt P54619); experiment: ATPase profile (ATP acyl phosphate probe); assay type: binding
PSMC4 = PSMC4 (Homo sapiens, UniProt P43686); experiment: ATPase profile (ATP acyl phosphate probe); assay type: binding; settings: PSMC4, SEQ ID NO: 176, ATP BS
RFC1 = target: T17, RFC1 (Homo sapiens, UniProt P35251); experiment: ATPase profile (ATP acyl phosphate probe); assay type: binding; settings: RFC1, SEQ ID NO: 183, ATP BS
T17 construct: to get the native cell lysate; endogenous in cells; host or cells: A375 cell lysate

RFC5 = target: T18, RFC5 (Homo sapiens, UniProt P40937); experiment: ATPase profile (ATP acyl phosphate probe); assay type: binding; settings: RFC5, SEQ ID NO: 186, ATP BS
T18 construct: to get the native cell lysate; endogenous in cells; host or cells: A375 cell lysate

RUVBL1 = target: T19, RUVBL1 (Homo sapiens, UniProt Q9Y265); experiment: ATPase profile (ATP acyl phosphate probe); assay type: binding; settings: RUVBL1, SEQ ID NO: 188, ATP BS
T19 construct: to get the native cell lysate; endogenous in cells; host or cells: A375 cell lysate

RUVBL2 = target: T20, RUVBL2 (Homo sapiens, UniProt Q9Y230); experiment: ATPase profile (ATP acyl phosphate probe); assay type: binding; settings: RUVBL2, SEQ ID NO: 189, ATP BS
T20 construct: to get the native cell lysate; endogenous in cells; host or cells: A375 cell lysate

SMC4 = target: T21, SMC4 (Homo sapiens, UniProt Q9NTJ3); experiment: ATPase profile (ATP acyl phosphate probe); assay type: binding; settings: SMC4, SEQ ID NO: 195, ATP BS
T21 construct: to get the native cell lysate; endogenous in cells; host or cells: A375 cell lysate

VCP = target: T22, VCP (Homo sapiens, UniProt P55072); experiment: ATPase profile (ATP acyl phosphate probe); assay type: binding
T22 construct: to get the native cell lysate; endogenous in cells; host or cells: A375 cell lysate

VPS4A, VPS4B = experiment: ATPase profile (ATP acyl phosphate probe); assay type: binding; settings: SEQ ID NO: 229, ATP BS

T22 sequence (P55072 2-806 limits assumed): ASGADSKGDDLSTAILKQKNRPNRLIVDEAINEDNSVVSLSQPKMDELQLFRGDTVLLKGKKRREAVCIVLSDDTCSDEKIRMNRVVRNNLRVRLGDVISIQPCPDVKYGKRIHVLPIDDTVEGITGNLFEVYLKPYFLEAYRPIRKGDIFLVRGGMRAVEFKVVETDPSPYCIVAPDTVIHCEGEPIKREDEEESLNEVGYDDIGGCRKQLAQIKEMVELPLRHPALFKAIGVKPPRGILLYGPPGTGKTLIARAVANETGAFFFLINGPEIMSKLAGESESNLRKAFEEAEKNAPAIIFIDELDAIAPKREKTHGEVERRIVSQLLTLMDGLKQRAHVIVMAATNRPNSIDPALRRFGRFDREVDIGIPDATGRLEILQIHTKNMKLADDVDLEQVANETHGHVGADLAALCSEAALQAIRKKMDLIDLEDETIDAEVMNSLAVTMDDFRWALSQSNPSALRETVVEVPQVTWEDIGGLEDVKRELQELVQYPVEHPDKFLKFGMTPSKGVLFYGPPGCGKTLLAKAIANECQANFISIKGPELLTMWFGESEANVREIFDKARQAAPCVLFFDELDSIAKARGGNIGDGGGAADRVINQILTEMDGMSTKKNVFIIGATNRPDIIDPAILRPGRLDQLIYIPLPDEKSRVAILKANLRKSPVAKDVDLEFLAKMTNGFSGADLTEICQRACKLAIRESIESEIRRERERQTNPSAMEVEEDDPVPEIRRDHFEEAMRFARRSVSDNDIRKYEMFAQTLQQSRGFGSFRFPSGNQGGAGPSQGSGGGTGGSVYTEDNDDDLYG
Sequence of PRKAG1 (P54619 whole entry): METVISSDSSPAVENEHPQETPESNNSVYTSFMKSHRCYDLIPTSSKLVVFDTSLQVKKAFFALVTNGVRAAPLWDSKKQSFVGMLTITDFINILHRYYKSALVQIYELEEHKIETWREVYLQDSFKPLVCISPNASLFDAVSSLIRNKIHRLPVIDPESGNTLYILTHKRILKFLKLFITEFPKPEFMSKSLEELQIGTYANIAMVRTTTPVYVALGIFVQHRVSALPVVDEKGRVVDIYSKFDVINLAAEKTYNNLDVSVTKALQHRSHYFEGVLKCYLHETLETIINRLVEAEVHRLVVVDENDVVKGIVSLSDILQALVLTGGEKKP
Sequence of PRKAG1 (Q13131 whole entry partner): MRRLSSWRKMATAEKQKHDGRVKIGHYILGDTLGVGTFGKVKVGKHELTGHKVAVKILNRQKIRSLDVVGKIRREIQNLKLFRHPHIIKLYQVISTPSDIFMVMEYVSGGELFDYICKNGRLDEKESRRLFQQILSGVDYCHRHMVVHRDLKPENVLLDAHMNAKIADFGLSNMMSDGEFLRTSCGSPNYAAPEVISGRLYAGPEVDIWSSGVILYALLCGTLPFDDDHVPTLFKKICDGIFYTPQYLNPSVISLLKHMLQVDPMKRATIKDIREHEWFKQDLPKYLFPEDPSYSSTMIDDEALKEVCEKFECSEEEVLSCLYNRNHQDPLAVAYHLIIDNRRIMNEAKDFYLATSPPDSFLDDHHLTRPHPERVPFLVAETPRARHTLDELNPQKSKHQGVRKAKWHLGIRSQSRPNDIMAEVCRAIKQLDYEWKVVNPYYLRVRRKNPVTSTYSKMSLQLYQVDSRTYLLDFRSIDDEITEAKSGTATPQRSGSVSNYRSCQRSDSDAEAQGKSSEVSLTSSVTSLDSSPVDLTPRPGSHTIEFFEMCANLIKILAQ
Sequence of PRKAG1 (Q9Y478 whole entry partner): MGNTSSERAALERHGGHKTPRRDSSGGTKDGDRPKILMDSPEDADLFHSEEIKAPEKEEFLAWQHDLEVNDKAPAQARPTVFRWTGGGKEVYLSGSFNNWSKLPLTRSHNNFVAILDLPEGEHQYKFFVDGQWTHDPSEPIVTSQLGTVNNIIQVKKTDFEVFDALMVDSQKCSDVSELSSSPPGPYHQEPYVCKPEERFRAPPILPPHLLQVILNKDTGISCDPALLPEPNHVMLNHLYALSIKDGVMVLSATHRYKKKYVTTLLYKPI
T11 sequence (P48637 whole entry): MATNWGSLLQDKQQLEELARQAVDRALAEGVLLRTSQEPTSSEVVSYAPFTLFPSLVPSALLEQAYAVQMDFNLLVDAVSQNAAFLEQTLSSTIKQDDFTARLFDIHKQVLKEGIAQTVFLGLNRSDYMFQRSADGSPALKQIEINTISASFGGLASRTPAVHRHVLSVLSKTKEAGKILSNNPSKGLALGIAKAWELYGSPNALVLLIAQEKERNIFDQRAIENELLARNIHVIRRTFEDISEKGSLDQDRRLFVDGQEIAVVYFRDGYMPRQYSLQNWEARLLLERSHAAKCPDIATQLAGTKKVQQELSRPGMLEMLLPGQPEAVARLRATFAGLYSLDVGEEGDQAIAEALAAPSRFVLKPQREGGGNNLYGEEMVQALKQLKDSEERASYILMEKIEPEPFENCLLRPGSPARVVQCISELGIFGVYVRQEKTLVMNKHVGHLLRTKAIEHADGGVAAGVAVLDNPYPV
T12 sequence (Q96RQ3 48-725 limits assumed): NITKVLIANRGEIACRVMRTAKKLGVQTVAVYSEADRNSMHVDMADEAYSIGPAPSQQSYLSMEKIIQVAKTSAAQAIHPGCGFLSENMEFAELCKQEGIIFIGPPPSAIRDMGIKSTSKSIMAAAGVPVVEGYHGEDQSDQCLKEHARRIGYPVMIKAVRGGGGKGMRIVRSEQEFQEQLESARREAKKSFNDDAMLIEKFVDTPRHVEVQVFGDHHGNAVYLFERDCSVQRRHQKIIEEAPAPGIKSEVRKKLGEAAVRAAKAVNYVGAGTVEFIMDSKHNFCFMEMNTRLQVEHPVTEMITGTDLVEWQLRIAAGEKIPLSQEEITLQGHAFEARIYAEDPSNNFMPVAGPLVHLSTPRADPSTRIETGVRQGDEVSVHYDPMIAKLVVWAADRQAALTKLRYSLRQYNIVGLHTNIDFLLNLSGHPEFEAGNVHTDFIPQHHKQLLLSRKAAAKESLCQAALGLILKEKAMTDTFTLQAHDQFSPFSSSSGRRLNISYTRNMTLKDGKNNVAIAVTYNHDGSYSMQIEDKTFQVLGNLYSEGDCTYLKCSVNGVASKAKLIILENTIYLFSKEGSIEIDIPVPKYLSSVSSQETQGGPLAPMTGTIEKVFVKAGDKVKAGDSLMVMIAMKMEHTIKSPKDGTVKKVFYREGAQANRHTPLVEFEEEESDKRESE
T12 sequence (Q9HCC0 23-563 partner): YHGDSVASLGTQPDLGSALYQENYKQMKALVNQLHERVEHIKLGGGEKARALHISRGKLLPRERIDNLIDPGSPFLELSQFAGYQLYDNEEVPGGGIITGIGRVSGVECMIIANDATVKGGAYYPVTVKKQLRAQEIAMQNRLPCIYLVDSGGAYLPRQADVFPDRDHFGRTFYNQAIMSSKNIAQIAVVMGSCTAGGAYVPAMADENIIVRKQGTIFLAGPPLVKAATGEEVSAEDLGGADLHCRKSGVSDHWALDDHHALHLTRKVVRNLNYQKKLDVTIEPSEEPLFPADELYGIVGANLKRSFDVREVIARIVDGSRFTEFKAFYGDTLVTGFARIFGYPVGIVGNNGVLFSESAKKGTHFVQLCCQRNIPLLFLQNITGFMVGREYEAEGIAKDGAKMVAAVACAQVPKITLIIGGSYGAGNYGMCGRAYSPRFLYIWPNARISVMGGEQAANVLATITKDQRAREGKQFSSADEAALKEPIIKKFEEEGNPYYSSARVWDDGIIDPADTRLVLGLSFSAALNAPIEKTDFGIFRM
T3 sequence (P28288 whole entry): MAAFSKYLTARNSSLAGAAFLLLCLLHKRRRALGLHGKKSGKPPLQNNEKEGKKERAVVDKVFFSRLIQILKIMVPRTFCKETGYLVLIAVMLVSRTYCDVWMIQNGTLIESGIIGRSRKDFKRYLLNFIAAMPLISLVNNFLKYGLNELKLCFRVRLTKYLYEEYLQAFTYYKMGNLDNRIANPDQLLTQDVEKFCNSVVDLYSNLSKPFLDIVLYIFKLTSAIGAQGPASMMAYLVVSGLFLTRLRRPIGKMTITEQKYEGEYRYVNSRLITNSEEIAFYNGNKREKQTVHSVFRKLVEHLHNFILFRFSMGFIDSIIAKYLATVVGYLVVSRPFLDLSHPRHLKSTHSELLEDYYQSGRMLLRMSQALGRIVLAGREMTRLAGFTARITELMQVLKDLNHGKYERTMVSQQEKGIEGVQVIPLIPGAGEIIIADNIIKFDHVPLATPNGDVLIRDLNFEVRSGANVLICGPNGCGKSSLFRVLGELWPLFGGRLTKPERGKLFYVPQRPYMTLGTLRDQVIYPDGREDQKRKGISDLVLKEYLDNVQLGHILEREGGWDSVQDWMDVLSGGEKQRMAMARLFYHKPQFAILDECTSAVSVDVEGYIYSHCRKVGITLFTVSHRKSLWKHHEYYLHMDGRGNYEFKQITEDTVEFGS
T6 sequence (Q13838 whole entry): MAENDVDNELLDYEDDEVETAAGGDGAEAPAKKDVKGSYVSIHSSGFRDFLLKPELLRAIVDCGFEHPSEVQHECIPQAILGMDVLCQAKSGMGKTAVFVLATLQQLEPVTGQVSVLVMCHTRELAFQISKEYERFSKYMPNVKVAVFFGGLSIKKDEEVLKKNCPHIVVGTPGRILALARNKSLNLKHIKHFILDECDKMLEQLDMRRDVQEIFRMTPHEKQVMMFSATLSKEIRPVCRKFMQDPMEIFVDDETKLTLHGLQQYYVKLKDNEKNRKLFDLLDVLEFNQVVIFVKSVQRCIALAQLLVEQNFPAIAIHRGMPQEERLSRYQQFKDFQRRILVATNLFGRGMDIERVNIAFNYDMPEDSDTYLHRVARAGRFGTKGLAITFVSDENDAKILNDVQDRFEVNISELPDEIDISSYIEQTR
T14 sequence (Q96T66 whole entry): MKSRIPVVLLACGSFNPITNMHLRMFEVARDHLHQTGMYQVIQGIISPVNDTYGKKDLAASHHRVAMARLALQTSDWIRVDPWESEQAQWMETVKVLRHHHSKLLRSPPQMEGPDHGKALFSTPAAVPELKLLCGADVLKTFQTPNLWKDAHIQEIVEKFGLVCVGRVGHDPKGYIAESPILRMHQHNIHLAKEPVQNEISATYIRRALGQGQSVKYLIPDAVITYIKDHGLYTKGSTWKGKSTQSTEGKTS

With `Cn1c(=O)[nH]c2ccc(-c3cccc(C(=O)NC4CCn5ccnc5C4)c3)cc21` (stereo not drawn) [Z36-MP5, 3-(3-methyl-2-oxo-2,3-dihydro-1H-benzo[d]imidazol-5-yl)-N-(5,6,7,8-tetrahydroimidazo[1,2-a]pyridin-7-yl)benzamide] the “half-life T1/2” value [1] was 27 min, the “Inhibition (%) by 1 μM Z36-MP5” value (AARS) was −29.97% and the “Inhibition (%) by 1 μM Z36-MP5” value (ABCC1; ABCC1, SEQ ID NO: 5, ATP BS) was −0.23%. The “Inhibition (%) by 1 μM Z36-MP5” value (ABCC1; ABCC1, SEQ ID NO: 6, ATP BS) was −7.84%, the “Inhibition (%) by 1 μM Z36-MP5” value (ABCD3) was 3.07% and the “Inhibition (%) by 1 μM Z36-MP5” value (AK2) was −4.75%. For the same molecule, the “Inhibition (%) by 1 μM Z36-MP5” value (ALDH18A1) was −6.95%, the “Inhibition (%) by 1 μM Z36-MP5” value (BAT1) was −9.58% and the “Inhibition (%) by 1 μM Z36-MP5” value (CCT8) was 9.18%. For the same molecule, the “Inhibition (%) by 1 μM Z36-MP5” value (CPS1) was 1.16%, the “Inhibition (%) by 1 μM Z36-MP5” value (DDX3X) was 11.22% and the “Inhibition (%) by 1 μM Z36-MP5” value (GARS) was 16.66%. For the same molecule, the “Inhibition (%) by 1 μM Z36-MP5” value (GSS; SEQ ID NO: 87, ATP BS) was −5.02%, the “Inhibition (%) by 1 μM Z36-MP5” value (GSS; SEQ ID NO: 88, ATP BS) was 7.54% and the “Inhibition (%) by 1 μM Z36-MP5” value (MCCC1; MCCC1, SEQ ID NO: 116, ATP BS) was −6.46%. For the same molecule, the “Inhibition (%) by 1 μM Z36-MP5” value (MCCC1; MCCC1, SEQ ID NO: 117, ATP BS) was 4.45%, the inhibition at 1 µM (MCM6; MCM6, SEQ ID NO: 119, ATP BS) was -5.23% and the inhibition at 1 µM (MCM6; MCM6, SEQ ID NO: 120, ATP BS) was -2.54%. The “Inhibition (%) by 1 μM Z36-MP5” value (NMNAT3) was 9.62%, the “Inhibition (%) by 1 μM Z36-MP5” value (NT5E) was −9.95% and the “Inhibition (%) by 1 μM Z36-MP5” value (NUDT1; NUDT1, SEQ ID NO: 142, ATP BS) was 25.70%. For the same molecule, the “Inhibition (%) by 1 μM Z36-MP5” value (NUDT1; NUDT1, SEQ ID NO: 143, ATP BS) was 22.17%, the “Inhibition (%) by 1 μM Z36-MP5” value (NUDT1; NUDT1, SEQ ID NO: 144, ATP BS) was 18.32% and the “Inhibition (%) by 1 μM Z36-MP5” value (PRKAG1; PRKAG1, SEQ ID NO: 167, ATP BS) was −11.56%. For the same molecule, the “Inhibition (%) by 1 μM Z36-MP5” value (PRKAG1; PRKAG1, SEQ ID NO: 168, ATP BS) was −7.08%, the “Inhibition (%) by 1 μM Z36-MP5” value (PSMC4) was 13.36% and the “Inhibition (%) by 1 μM Z36-MP5” value (RFC1) was −12.52%. For the same molecule, the “Inhibition (%) by 1 μM Z36-MP5” value (RFC5) was 2.11%, the “Inhibition (%) by 1 μM Z36-MP5” value (RUVBL1) was −15.57% and the “Inhibition (%) by 1 μM Z36-MP5” value (RUVBL2) was −0.97%. The “Inhibition (%) by 1 μM Z36-MP5” value (SMC4) was −7.11%, the “Inhibition (%) by 1 μM Z36-MP5” value (VCP; SEQ ID NO: 225, ATP BS) was −8.02% and the “Inhibition (%) by 1 μM Z36-MP5” value (VCP; SEQ ID NO: 226, ATP BS) was −2.36%. For the same molecule, the “Inhibition (%) by 1 μM Z36-MP5” value (VCP; SEQ ID NO: 227, ATP BS) was −7.20%, the “Inhibition (%) by 1 μM Z36-MP5” value (VCP; SEQ ID NO: 228, ATP BS) was 7.80% and the “Inhibition (%) by 1 μM Z36-MP5” value (VPS4A, VPS4B) was −2.55%.
